In ChEMBL document CHEMBL1138000, “Novel, potent and selective anilinoquinazoline and anilinopyrimidine inhibitors of p38 MAP kinase” (Bioorg Med Chem Lett, 2004):
Values after ≈ are worked out from the molar mass of the structure shown.

Columns and labels:
[1] = target: Epidermal growth factor receptor (Homo sapiens, UniProt P00533); assay: Inhibitory concentration against Epidermal growth factor receptor tyrosine kinase activity
[2] = target: Mitogen-activated protein kinase 14 (Homo sapiens, UniProt Q16539)
Description: Inhibitory concentration against alpha mitogen activated protein kinase p38 activity

Homo sapiens = species: Homo sapiens; assay: Concentration required to inhibit TNF-alpha production was determined in human whole blood; type: functional
[3] = Clearance after i.v. dosing at 1 mg/kg; type: ADME, organism-based; set-up: dose 1 mg/kg, route intravenous; conditions: rat, in vivo, iv
[4] = Clearance after oral dosing at 1 mg/kg; type: ADME, organism-based; set-up: dose 1 mg/kg, route oral; conditions: rat, in vivo, read-out: Clearance
[5] = oral bioavailability after p.o. dosing at 1 mg/kg; conditions: rat, in vivo, read-out: Bioavailabiility
[6] = Volume of distribution at steady state after i.v. dosing at 1 mg/kg; type: ADME, organism-based; set-up: dose 1 mg/kg, route intravenous; conditions: rat, in vivo, iv, read-out: Distribution
[7] = Volume of distribution at steady state after oral dosing at 1 mg/kg; type: ADME, organism-based; set-up: dose 1 mg/kg, route oral; conditions: rat, in vivo
[8] = oral bioavailability after oral dosing at 1 mg/kg; type: ADME, organism-based; conditions: rat, in vivo, read-out: Bioavailabiility
[9] = Protein binding was determined in rat plasma; type: ADME, cell-free
[10] = Log D value at pH 7.4; type: physicochemical; conditions: buffer

Epidermal growth factor receptor, sequence (P00533 whole entry): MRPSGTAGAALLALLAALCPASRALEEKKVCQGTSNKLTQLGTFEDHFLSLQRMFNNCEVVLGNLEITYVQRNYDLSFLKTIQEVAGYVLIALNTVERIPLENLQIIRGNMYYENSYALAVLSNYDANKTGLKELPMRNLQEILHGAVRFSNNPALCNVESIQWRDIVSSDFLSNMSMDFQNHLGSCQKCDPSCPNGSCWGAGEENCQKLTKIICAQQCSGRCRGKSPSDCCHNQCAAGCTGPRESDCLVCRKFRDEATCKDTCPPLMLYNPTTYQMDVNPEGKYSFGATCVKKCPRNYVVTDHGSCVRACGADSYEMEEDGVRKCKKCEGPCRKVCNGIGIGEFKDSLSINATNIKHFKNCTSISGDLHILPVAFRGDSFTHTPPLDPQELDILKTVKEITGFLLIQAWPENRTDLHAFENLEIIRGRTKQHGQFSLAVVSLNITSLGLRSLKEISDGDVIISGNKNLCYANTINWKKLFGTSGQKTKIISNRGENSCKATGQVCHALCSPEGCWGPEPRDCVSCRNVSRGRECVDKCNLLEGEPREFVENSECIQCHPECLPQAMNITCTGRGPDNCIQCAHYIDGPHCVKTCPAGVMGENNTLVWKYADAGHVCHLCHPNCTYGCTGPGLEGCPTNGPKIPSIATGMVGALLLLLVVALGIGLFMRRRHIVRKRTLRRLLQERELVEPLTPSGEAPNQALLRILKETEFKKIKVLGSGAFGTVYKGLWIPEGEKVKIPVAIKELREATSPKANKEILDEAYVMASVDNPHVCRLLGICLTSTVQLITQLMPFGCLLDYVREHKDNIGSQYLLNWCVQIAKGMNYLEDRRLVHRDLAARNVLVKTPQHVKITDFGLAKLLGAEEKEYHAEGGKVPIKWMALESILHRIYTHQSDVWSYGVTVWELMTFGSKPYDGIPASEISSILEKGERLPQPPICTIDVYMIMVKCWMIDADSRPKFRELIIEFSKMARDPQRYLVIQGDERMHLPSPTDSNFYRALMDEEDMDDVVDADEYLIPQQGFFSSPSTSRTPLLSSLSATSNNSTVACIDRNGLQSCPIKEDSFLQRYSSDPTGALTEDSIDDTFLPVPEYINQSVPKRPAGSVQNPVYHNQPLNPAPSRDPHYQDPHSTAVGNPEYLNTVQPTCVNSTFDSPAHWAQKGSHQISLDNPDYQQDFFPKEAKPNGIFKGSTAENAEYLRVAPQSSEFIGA
Mitogen-activated protein kinase 14, sequence (Q16539 whole entry): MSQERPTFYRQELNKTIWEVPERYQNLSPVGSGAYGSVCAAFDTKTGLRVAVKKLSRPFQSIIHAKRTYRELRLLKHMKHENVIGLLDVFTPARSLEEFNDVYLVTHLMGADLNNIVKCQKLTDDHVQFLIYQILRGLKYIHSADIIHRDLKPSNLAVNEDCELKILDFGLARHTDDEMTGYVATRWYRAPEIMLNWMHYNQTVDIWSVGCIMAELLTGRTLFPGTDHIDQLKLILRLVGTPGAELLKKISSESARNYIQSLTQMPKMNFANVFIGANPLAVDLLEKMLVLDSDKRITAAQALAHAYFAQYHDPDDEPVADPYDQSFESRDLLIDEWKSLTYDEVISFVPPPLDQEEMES

Row | Structure (SMILES) | IC50 [1] [nM] | IC50 [2] [nM] | IC50 (Homo sapiens) [nM] | also measured
1 | COc1cc2ncnc(Nc3cccc(NC(=O)c4ccccc4)c3F)c2cc1OC | 2800 | 690 | > 50000 | 
2 | C=CCN(C)c1nccc(Nc2cc(NC(=O)c3ccnc(N4CCOCC4)c3)ccc2C)n1 |  | 110 | > 50000 | 
3 | COc1cc2ncnc(Nc3cc(NC(=O)c4cccc(N5CCOCC5)c4)ccc3C)c2cc1OC | > 33000 | 10 | 16000 | 
4 | Cc1ccc(NC(=O)c2ccnc(N3CCOCC3)c2)cc1Nc1cc(N2CCCN(C)CC2)ncn1 |  | 1220 | > 50000 | 
5 | COc1cc2ncnc(Nc3cc(NC(=O)c4ccnc(N5CCOCC5)c4)ccc3C)c2cc1OCCN1CCOCC1 |  | 20 | 7800 | 
6 | COc1cc2ncnc(Nc3cc(NC(=O)c4ccccc4)ccc3C)c2cc1OC | > 33000 | 70 | 21000 | 
7 | COc1cc2ncnc(Nc3ccc(Cl)c(NC(=O)c4cccc(N(C)C)c4)c3)c2cc1OC | 1000 | 1690 | > 50000 | 
8 | COc1cc2ncnc(Nc3cc(NC(=O)c4ccccc4)c(Cl)cc3F)c2cc1OC |  | 510 | > 50000 | 
9 | CCCN1CCC(Oc2nccc(Nc3cc(NC(=O)c4ccnc(N5CCOCC5)c4)ccc3C)n2)CC1 |  | 50 | 410 | 
10 | Cc1ccc(NC(=O)c2ccnc(N3CCOCC3)c2)cc1Nc1ccncn1 |  | 210 | 27000 | 
11 | Cc1ccc(NC(=O)c2ccnc(N3CCOCC3)c2)cc1Nc1ccnc(OC2CCN(C)CC2)n1 |  | 40 | 500 | 
12 | COc1cc2ncnc(Nc3cc(NC(=O)c4ccccc4)ccc3Cl)c2cc1OC | 11000 | 80 | > 50000 | 
13 | Cc1ccc(NC(=O)c2ccnc(N3CCOCC3)c2)cc1Nc1ccnc(Cl)n1 |  | 10 | 11000 | 
14 | Cc1ccc(NC(=O)c2ccnc(N3CCOCC3)c2)cc1Nc1cc(Cl)ncn1 |  | 240 | > 50000 | 
15 | COc1cc2ncnc(Nc3cc(NC(=O)c4ccccc4)c(F)cc3F)c2cc1OC | 490 | 50 | > 50000 | 
16 | Cc1ccc(NC(=O)c2ccnc(N3CCOCC3)c2)cc1Nc1ccnc(OCCCN(C)C)n1 |  | 30 | 3200 | 
17 | COc1cc2ncnc(Nc3ccc(C)c(NC(=O)c4ccccc4)c3)c2cc1OC | 3200 | 2090 | > 50000 | 
18 | COc1cc2ncnc(Nc3cccc(NC(=O)c4ccccc4)c3)c2cc1OC | 5600 | 140 | > 50000 | 

Row | Structure (SMILES) | IC50 [1] [nM] | IC50 [2] [nM] | IC50 (Homo sapiens) [nM] | also measured
19 | Cc1ccc(NC(=O)c2ccnc(N3CCOCC3)c2)cc1Nc1cc(NCCCN2CCCC2)ncn1 |  | 450 | > 50000 | 
20 | COc1cc2ncnc(Nc3cc(NC(=O)c4cccc(N(C)C)c4)ccc3Cl)c2cc1OC | 29000 | 40 | > 50000 | 
21 | CSc1nccc(Nc2cc(NC(=O)c3cc(F)cc(N4CCOCC4)c3)ccc2C)n1 |  | 10 | 3400 | clearance [3]: 25 mL/min/kg; CL/F [4]: 25 mL/min/kg; bioavailability [5]: 26%; Vd [6]: 0.8 L/kg; Distribution [7]: 0.8 L/kg; bioavailability [8]: 26%
22 | COc1cc2ncnc(Nc3cc(NC(=O)c4ccnc(N5CCOCC5)c4)ccc3C)c2cc1OCCN(C)C |  | 30 | 6900 | 
23 | CCN(CC)CCCNc1cc(Nc2cc(NC(=O)c3ccnc(N4CCOCC4)c3)ccc2C)ncn1 |  | 280 | 23000 | 
24 | COc1cc2ncnc(Nc3cc(NC(=O)c4ccnc(N5CCOCC5)c4)ccc3C)c2cc1OCCN1CCCCC1 |  | 50 | 4600 | 
25 | Cc1ccc(NC(=O)c2ccnc(N3CCOCC3)c2)cc1Nc1ccnc(NCCCN2CCOCC2)n1 |  | 90 | > 50000 | 
26 | COc1cc2ncnc(Nc3ccc(Cl)c(NC(=O)c4ccccc4)c3)c2cc1OC | 2200 | 610 | > 50000 | 
27 | CCCN1CCC(Oc2nccc(Nc3cc(NC(=O)c4cccc(N5CCOCC5)c4)ccc3C)n2)CC1 |  | 40 | 300 | 
28 | Cc1ccc(NC(=O)c2ccnc(N3CCOCC3)c2)cc1Nc1ccnc(OCC(C)(C)CN(C)C)n1 |  | 70 | 3700 | 
29 | COc1cc2ncnc(Nc3cc(NC(=O)c4ccnc(N5CCOCC5)c4)ccc3C)c2cc1OCCN(C(C)C)C(C)C |  | 50 | 3500 | Binding [9]: 83%; logD [10]: 3.5; solubility (Aqueous solubility): 240 µM (≈ 147 µg/mL)
30 | COc1cc2ncnc(Nc3cc(NC(=O)c4cccc(N(C)C)c4)ccc3C)c2cc1OC | > 33000 | 30 | 35000 | 
31 | Cc1ccc(NC(=O)c2ccnc(N3CCOCC3)c2)cc1Nc1ccnc(OCC2CCCN(C)C2)n1 (configuration not stated) |  | 30 | 1100 | 
32 | COc1cc2ncnc(Nc3cccc(NC(=O)c4cccc(N(C)C)c4)c3)c2cc1OC | > 33000 | 210 | > 50000 | 
33 | Cc1ccc(NC(=O)c2ccnc(N3CCOCC3)c2)cc1Nc1ccnc(N(C)C2CCN(C)CC2)n1 |  | 80 | 5300 | 
34 | Cc1ccc(NC(=O)c2ccnc(N3CCOCC3)c2)cc1Nc1ccnc(NCCCN2CCCC2)n1 |  | 50 | 16000 | 
35 | C[S+]([O-])c1ccc(-c2nc(-c3ccc(F)cc3)c(-c3ccncc3)[nH]2)cc1 (configuration not stated) [SB-203580] |  |  | 2000 | 
36 | COc1cc2ncnc(Nc3cccc(Cl)c3)c2cc1OC [TYRPHOSTIN AG-1478] |  | 560 | > 50000 | 
